In data set [1] the target is hemoglobin (Hb) (Homo sapiens, UniProt P68871+P69905). The experiment in a line: Hydrogen peroxide scavenging ability with hemoglobin (Amplex Red H2O2 assay). In kind it is biochemical. To be noted: 10 μM H2O2, 80 μg/ml hemoglobin, 37° C. about 30 minutes. As to the method:
Amplex Red is a means which turns into a fluorescent substance called resorufin when horse radish peroxidase (HRP) and H2O2 exist together and allows measurement of changes in H2O2, that is, H2O2 assay. […] The experiment was performed by adding hemoglobin instead of HRP to the H2O2 assay by Amplex Red (FIG. 1). The final concentration of each substance was 10 μM of H2O2 and 80 μg/ml of hemoglobin, and the aminoaromatic compound of the present invention was treated by concentration. After the reaction at 37° C. for about 30 minutes as such, fluorescence (excitation: 540 nm, emission: 580 nm) was measured by a microplate reader. At this time, it can be said that fluorescence is proportional to the amount of H2O2. Normalization was performed for each concentration based on a fluorescence value without a drug, and a value at which the fluorescence value was 50%, that is, a half maximal effective concentration (EC50) was determined by a program through statistical processing. The results are shown in the following Table 2, and AAD-2004 was used as a control group.

A short description of data set [2]: Blood brain barrier (BBB) permeability analysis (PAMPA). In kind it is in vitro ADME. The protocol:
Based on J Med Chem. 2001 Mar. 15; 44 (6):923-30., an artificial blood brain barrier (BBB) was produced by a parallel artificial membrane permeability assay (PAMPA), and the permeability of the drug was assessed.

Data set [3] relates to primary cultured astrocytes. The experiment in a line: In vitro H2O2 decomposition in primary cultured astrocytes (H2DCFDA-AM). The format is cell-based, C57BL/6 mice. The protocol:
(§1) Primary cortical astrocytes were prepared from C57BL/6 mice from the day of birth to day 3 since birth. The cerebral cortex was dissected without adherent meninges, minced, and dissociated into a single cell suspension by trituration. The cells were grown in Dulbecco's modified Eagle's medium (DMEM) (Invitrogen) supplemented with 25 mM glucose, 10% heat-inactivated horse serum, 10% heat-inactivated fetal calf serum (FCS), 2 mM glutamine, and 1,000 U/ml of penicillin-streptomycin. Culture was maintained at 37° C. in a humidified 5% CO2 incubator. On day 3 of the culture, cells were vigorously washed by repeated pipetting, and the medium was exchanged to remove debris and other floating cell types.
In order to verify that there was a H2O2 scavenging effect in a cell-level experiment, a cell-permeant 2′,7′-dichlorodihydrofluorescein diacetate (H2DCFDA-AM) drug which is a hydrogen peroxide probe in astrocytes was used to measure the amount of H2O2 in the cells with fluorescence (A and B of FIG. 2). […]
An experiment timeline for investigating the H2O2 decomposition effect by the aminoaromatic compound of the present invention, KDS12008 (Example 1) (10 μM) and sodium pyruvate (10 mM) for naturally occurring H2O2 in the cultured astrocytes is shown in A of FIG. 2. […] H2DCFDA-AM was a sample which reacted with H2O2 to produce green fluorescence, and was used at 10 μM for measurement. […]

The test system of data set [4] is cultured astrocytes. The experiment in a line: Cell viability (QuantiMax reagent). The format is cell-based, C57BL/6 mice. As to the method: as §1
In addition, in order to investigate cell viability, the experiment was performed using a QuantiMax reagent. The cell viability was confirmed by a luminescence degree of QuantiMax, and the results are shown in B of FIG. 3.

The test system of data set [5] is APP/PS1 mouse. The experiment in a line: Passive avoidance test (PAT) I. In kind it is in vivo. To be noted: 30 mg/kg/day IP for 16 days. The protocol:
A passive avoidance test is an experiment to check the memory of animals, in which a weak electric stimulation was given in a dark room and it was assessed whether the animal remembered the electrical stimulation.
Since mice preferred a dark room, they have a tendency to move quickly to a dark room when they are in a bright room. […] A time to move from a bright room to a dark room (latency to dark room, sec) was measured, thereby measuring memory of a combination of the electrical stimulation and the dark room. An APP/PS1 mouse which is used as an Alzheimer's animal model was used to perform the passive avoidance test (FIG. 4). A wild type (WT) mouse was used as a control group.
On the first day of PAT, as an acquisition session, the mouse was allowed to stay in a bright room, and after a certain time, a dark room was opened and a time for the mouse to enter the dark room was measured. When the mouse entered the dark room, an electrical shock (0.5 mA, 2 sec) was given by a foothold. On the second day, as a retrieval session, the mouse was placed in a bright room, and a time for the mouse to enter a dark room was measured. At this time, the door of the dark room was opened first.
The APP/PS1 dementia mouse was intraperitoneally injected with the aminoaromatic compound of the present invention (KDS12008 (Example 1), KDS12017 (Example 16), or KDS12025 (Example 21)) (KDS12008 (Example 1) 30 mg/kg/day (30 mpk); KDS12017 (Example 16) 30 mg/kg/day (30 mpk); KDS12025 (Example 21) 3 mg/kg/day (3 mpk)) for 16 days (intraperitoneal injection, IP).

Data set [6] relates to APP/PS1 mouse hippocampus astrocytes (GFAP). The experiment in a line: Immunohistochemistry (IHC) I of brain tissue, GFAP. The format is in vivo. Conditions: 30 mg/kg/day IP for 16 days. As to the method:
The brain of the Alzheimer's animal model of Experimental Example 3 was fixed with formaldehyde, and sliced into a small thickness. The amount of cells or specific protein in the sliced brain was measured with an image by histochemical staining. In the present experimental example, an antibody labeling an astrocyte was used to measure a change in astrocytes related to dementia. The results are illustrated in FIG. 5. That is, in the present experimental example, the hippocampus of the brain was histologically stained and a change in astrocytes around dementia substance amyloid beta was observed. Glial fibrillary acidic protein (GFAP) refers to astrocytes staining, 4′,6-diamidino-2-phenylindole (DAPI) marked cell nuclei and amyloid beta substance.

For data set [7], the system named is WT mouse (C57BL/6 mouse). The experiment in a line: Single toxicity assessment (lethal dose 50, LD50). To be noted: for animals died: C57BL/6, mouse, 300 mg/kg; for animals died / toxicity (death of animals): in vivo, ip; for toxicity (death of animals): mouse, 1000 mg/kg; for lethal toxicity: single dose 100 mg/kg IP, C57BL/6 mouse. In kind it is in vivo. As to the method: The aminoaromatic compound of the present invention, KDS12008 (Example 1), KDS12017 (Example 16), or KDS12025 (Example 21) was intraperitoneally injected at a single dose of 100, 300, and 1000 mg/kg, respectively, into a WT mouse at about 8 weeks of age (C57BL/6 mouse), and it was assessed whether the animal was dead.

hemoglobin (Hb), sequence (P69905 2-142 limits assumed): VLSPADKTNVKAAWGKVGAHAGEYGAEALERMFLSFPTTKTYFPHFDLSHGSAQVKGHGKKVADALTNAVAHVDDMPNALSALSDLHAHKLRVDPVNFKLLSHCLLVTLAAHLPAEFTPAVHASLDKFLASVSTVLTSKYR
hemoglobin (Hb), sequence (P68871 2-147 limits assumed): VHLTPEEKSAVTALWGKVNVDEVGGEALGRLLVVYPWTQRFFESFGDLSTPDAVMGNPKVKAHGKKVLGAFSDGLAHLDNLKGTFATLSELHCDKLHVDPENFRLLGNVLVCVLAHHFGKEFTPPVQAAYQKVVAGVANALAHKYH

One may read the EC50 as the concentration needed to bring the measured effect to its halfway point. One may read the Papp as the rate of passage across a membrane or cell layer, normalised by area and donor concentration. For the compound `O=C(O)c1cc(NCCc2ccc(C(F)(F)F)cc2)ccc1O` [AAD-2004, reference compound], the concentration for a half-maximal effect (EC50) in data set [1] worked out at 990 nM. The Papp at 50 μM in data set [2] was determined as 3.56 ×10⁻⁶ cm/s.

In the case of `CN(C)c1ccc(NCCc2ccc(C(F)(F)F)cc2)cc1` [Example 1], in data set [1], the EC50 is 540 nM. Further, the “H2O2 decomposition effect on naturally occurring H2O2” value in data set [3] (10 μM, 2 days, cultured astrocytes) is recorded as “statistically significant decrease in H2O2”. Further, the “amount of H2O2 in cells (fluorescence intensity)” value in data set [3] (astrocytes treated at various concentrations) is “H2O2 was decreased with the concentration”. Also, the cell viability entry in data set [4] (100 μM) is reported as “no effect on cell viability”. In addition, the “latency to dark room (impaired memory)” value in data set [5] was “significantly recovered”. Moreover, the “GFAP (astrocytes) in hippocampus” value in data set [6] is given as “decreased GFAP”. In data set [7], the animals died result is given as “about 50%”, the “toxicity (death of animals)” value was “showed toxicity” and the lethal toxicity result is on record as “lethal toxicity was not shown”.

Consider `CN(C)c1ccc(NCCc2cccc(C(F)(F)F)c2)cc1` [Example 3], for which, in data set [1], the EC50 was determined as 560 nM.

On to `CN(C)c1ccc(NCCc2ccccc2Cl)cc1` [Example 4], for which, in data set [1], the EC50 stood at 580 nM.

With `CN(C)c1ccc(NCCc2cccc(Cl)c2)cc1` [Example 5], the EC50 in data set [1] amounted to 430 nM.

As to `CN(C)c1ccc(NCCc2ccc(Cl)cc2)cc1` [Example 6], the 50% effective concentration (EC50) in data set [1] was determined as 270 nM.

Turning to `COc1ccc(CCNc2ccc(N(C)C)cc2)cc1` [Example 7], in data set [1], the half-maximal effective concentration (EC50) amounted to 460 nM.

As to `CN(C)c1ccc(NCCc2ccc(F)cc2)cc1` [Example 8], the EC50 in data set [1] was 410 nM.

For `Nc1ccc(NCCc2ccc(C(F)(F)F)cc2)cc1` [Example 9], in data set [1], the 50% effective concentration (EC50) was determined as 300 nM.

Regarding `CN(C)c1ccc(NCCCc2ccc(C(F)(F)F)cc2)cc1` [Example 10], in data set [1] ((DMSO)), the 50% effective concentration (EC50) was 300 nM.

In the case of `Nc1ccc(NCCCc2ccc(C(F)(F)F)cc2)cc1` [Example 11], the EC50 in data set [1] ((DMSO)) is 540 nM.

As to `Nc1ccc(NCCc2ccccc2C(F)(F)F)cc1` [Example 12], the half-maximal effective concentration (EC50) in data set [1] turned out to be 830 nM.

As to `Nc1ccc(NCCc2cccc(C(F)(F)F)c2)cc1` [Example 13], in data set [1], the EC50 turned out to be 720 nM.

Regarding `Nc1ccc(NCCc2cccc(F)c2)cc1` [Example 14], the EC50 in data set [1] worked out at 780 nM.

Regarding `Nc1ccc(NCCc2ccccc2Cl)cc1` [Example 15], the 50% effective concentration (EC50) in data set [1] was found to be 590 nM.

Consider `CNc1ccc(NCCc2ccc(C(F)(F)F)cc2)cc1` [Example 16], for which the EC50 in data set [1] was found to be 190 nM. Besides, in data set [5], the “latency to dark room (impaired memory)” value was “significantly recovered”. The “GFAP (astrocytes) in hippocampus” value in data set [6] is “decreased GFAP”. Moreover, in data set [7], the animals died entry is reported as “about 50%”, the “toxicity (death of animals)” value is recorded as “showed toxicity” and the lethal toxicity entry is reported as “lethal toxicity was not shown”.

Regarding `CNc1ccc(NCCCc2ccc(C(F)(F)F)cc2)cc1` [Example 17], in data set [1] ((DMSO)), the EC50 worked out at 300 nM.

As to `CNc1ccc(NCCc2ccccc2C(F)(F)F)cc1` [Example 18], the EC50 in data set [1] was found to be 210 nM.

With `CNc1ccc(NCCc2cccc(C(F)(F)F)c2)cc1` [Example 19], the concentration for a half-maximal effect (EC50) in data set [1] worked out at 190 nM.

Consider `CNc1ccc(NCCc2cccc(Cl)c2)cc1` [Example 20], for which the 50% effective concentration (EC50) in data set [1] came out at 260 nM.

For the compound `CNc1ccc(NCCc2ccc(Cl)cc2)cc1` [Example 22], the EC50 in data set [1] was 520 nM.

On to `CNc1ccc(NCCc2ccc(OC)cc2)cc1` [Example 23], for which, in data set [1], the concentration giving a half-maximal response (EC50) came out at 620 nM.

In the case of `CNc1ccc(NCCc2cccc(OC)c2)cc1` [Example 24], the EC50 in data set [1] was 610 nM.

Take `CC(=O)C(=O)[O-].[Na+]` [sodium pyruvate, reference compound]: the cell viability result in data set [4] (10 mM) is on record as “lowered cell viability”.

For the origin of these results see patent publication US20230406812A1, “NOVEL AMINOAROMATIC COMPOUND OR PHARMACEUTICALLY ACCEPTABLE SALT THEREOF, AND PHARMACEUTICAL COMPOSITION FOR PREVENTING OR TREATING NEURODEGENERATIVE DISEASES COMPRISING SAME AS ACTIVE INGREDIENT” (INSTITUTE FOR BASIC SCIENCE, priority 2020, published 2023).
